In PubChem BioAssay (NCI):
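Cultured in 96-well plates, cells were exposed to test compound for 48 hours across five concentrations. Here, GI50 denotes the concentration required for 50% inhibition of growth. TGI: total growth inhibition.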

Tested on: MDA-MB-468 breast
Test: DTP human tumour cell line panel, 48 h

Compound	GI50 [nM]	TGI [nM]
COc1ccc(CCN2CC=Cn3c2nc2ccccc2c3=O)cc1	81.6	11800
COc1ccc2c(c1)NC1=C(C(=O)OC1)C2c1cc(OC)c2c(c1)OCO2 (stereo not given)	< 15.4	61
Cn1ncnc1[C@H]1c2n[nH]c(=O)c3cc(F)cc(c23)N[C@@H]1c1ccc(F)cc1	1420	> 100000
Cc1ccc(S(=O)(=O)c2c(COC(=O)c3cccc(C)c3)c(-c3ccccc3)nn2C)cc1	> 100000	> 100000
Cc1ccccc1OCC(O)CN1CCN(c2ccc(Cl)cc2)CC1 (stereo not given)	17400	35400
O=C(Nc1ccc(Br)cc1F)c1cc(I)ccc1O	2170	6220
Nc1ncnc2c1N=C(c1ccc3c(c1)OCO3)CC(c1ccc([N+](=O)[O-])cc1)N2 (stereo not given)	25200	60400
CC1=C(c2cccc(O)c2)[C@H](c2ccc(OCCN3CC(CF)C3)cc2)Oc2ccc(O)cc21	2400	6240
Cc1cc(NCCCN(C)C)c2ccc3c(ccc4c(NCCCN(C)C)cc(C)nc43)c2n1	153	312
Cc1cc(F)ccc1S(=O)(=O)Nc1cc(-c2c(O)ccc3ccccc23)c(O)c2ccccc12	1650	3700
C#CC#CC#CC#CC#CC#CC#CC#CCC1OCC(COC(=O)O[C@@H](C(=O)O[C@H]2C[C@@]3(O)[C@@H](OC(=O)c4ccccc4)[C@@H]4[C@]5(OC(C)=O)CO[C@@H]5C[C@H](O)[C@@]4(C)C(=O)[C@H](OC(C)=O)C(=C2C)C3(C)C)[C@@H](NC(=O)c2ccccc2)c2ccccc2)O1 (stereo not given in full)	67	423
O=C1c2c(c3c4cc(Br)ccc4[nH]c3c3ccc4ccccc4c23)C(=O)N1CCN1CCNCC1	1800	4480
CCNCCCn1c2c(c3ccc(Cl)cc3c1=O)C(=O)c1cc(OC)cnc1-2	249	4300
O=C(Nc1ccc(Cl)cc1)Nc1nc2ccc([N+](=O)[O-])cc2s1	862	2380
COc1cc(C(=O)c2c(-c3ccccc3)oc3c(OC)cccc23)cc(OC)c1OC	83.9	11100
